Laboratory results reported in publication PMC9542156, “Multivalent γ‐PGA‐Exendin‐4 Conjugates to Target Pancreatic β‐Cells” (Chembiochem, 2022).

Tests used:
[1] = tested on: GLP‐1R of Beta‐TC‐6 cells; assay: Affinity test (cell-based competitive flow cytometric receptor binding assay); settings: 10 nM fluorescein-labelled Ex-4, 0.5 h, 310 K, compared to Ex4-PEG-MA
Experimental: The binding ability of γ‐PGA‐Ex‐4 compounds to GLP‐1R expressed on β‐cells surface was examined in a competitive flow cytometric assay. This receptor binding assay was developed based on similar, receptor targeting studies, of Ex‐4 targeting[85] and folate targeting.[86] The relative competition capability to the target receptor, compared to Ex4‐PEG‐MA, was evaluated among γ‐PGA‐Ex‐4 conjugates at different degrees of functionalization. The obtained values were normalized with respect to the degree of functionalization of each bioconjugate, so that the comparison is not affected by the different amount of Ex‐4 molecules on each polymeric chain. GLP‐1R positive Beta‐TC‐6 cells were co‐incubated with fluorescein‐labelled Ex‐4 and the different Ex‐4 formulations, γ‐PGA‐Ex‐4‐1, γ‐PGA‐Ex‐4‐2, γ‐PGA‐Ex‐4‐3, and Ex4‐PEG‐MA or Ex‐4 as references. […]
5×10^5 cells were incubated with 10 nм fluorescein‐labelled Ex‐4 (Eurogentec) alone or together with the tested compounds at 310 K in RPMI supplemented with 10 % FBS. After 0.5 h the cells were washed with ice cold PBS and fluorescence of the cells was measured by flow cytometer (BD FACSCalibur). […] The binding ability of γ‐PGA‐Ex‐4 conjugates and peptides to the GLP‐1R positive cells was calculated based on the inhibition of the fluorescent Ex‐4 derived signal. […]

[2] = tested on: dipeptidyl peptidase‐IV (DPP‐IV); settings: natural ligand GLP-1 rapidly degraded by DPP-IV; cited from earlier work
Excerpt: Type 2 diabetes is an unresolved pathology, related to genetic and environmental factors, which gradually decline the pancreatic islet functionality, finally culminating in a pathological phenomenon defined as hyperglycemia.[1] Pancreatic β‐cells take on a key role in the so‐called glucose homeostasis by secreting insulin and amylin.[2] A wide range of pharmacologic treatments have been developed, but none of them is considered the ultimate solution.[3] The classic target for diabetes 2 therapies is GLP‐1R, that stimulates insulin secretion upon interaction with its natural ligand, gluca ...

| Substance | Binding / affinity towards GLP‐1R positive β‐cells (in words) [1] | time to degradation by DPP‐IV [2] [min] |
| --- | --- | --- |
| HGEGTFTSDLSKQMEEE‐AVRLFIEWLys(PEG4‐Mal)KNGGPSSGAPPP S‐NH2 [Ex‐4‐PEG‐MA, exendin‐4(Lysine27‐PEG4‐maleimide), purchased from Caslo ApS] | still capable to bind GLP‐1R | – |
| glucagon‐like peptide 1 [GLP‐1] | – | < 2 |
